Reference: patent US11479539B2, “Small molecule modulators of the BTB domain of Keap1” (MedImmune Limited, priority 2017, dated 2022)

target: Keap1 (Homo sapiens (Human), UniProt Q14145); experiment: HEK293 ARE luciferase assay; format: cell-based; details: HEK-293 ARE firefly luciferase transiently transfected cells; 18 h incubation; mean of 1 to 20 individual measurements
Description: The purpose of this assay is to identify small molecule inhibitors of Keap1, preventing Keap1 binding to Nrf2, and thus activating the Nrf2 signalling pathway in HEK-293 ARE firefly luciferase transiently transfected cells. HEK-293 cells express wild-type Keap1 protein and therefore have low constitutive levels of Nrf2 protein and Nrf2-dependent transcription. […] When Keap1 is inhibited, Nrf2 signalling is activated, and there is an increase in luciferase expression and light emission.
Cryopreserved HEK ARE luciferase cells were rapidly thawed in a 37° C. water bath and resuspended in assay culture medium (DMEM, 10% FCS, 2 mM L-glutamine). The cell suspension was pelleted by centrifugation ([…]; 300 g) using a Heraeus benchtop centrifuge. Supernatant was removed and the pellet was gently resuspended in 5 mL culture medium per vial. Cell viability and cell number was measured using an Invitrogen Countess automated cell counter (typical viability 80%), and cells were diluted to a density of 5.0×10^5 cells/mL.
Cells were then plated out into white 384-well plates (Greiner 781080) using a Multidrop Combi, 20 μL/well, to give 10,000 cells/well. As appropriate, test compounds had been added to wells prior to dispensing cells using an Echo 555 acoustic dispenser (Labcyte). Plates were left at room temperature for ˜10 min to promote even cell settling across the plate before incubation for 18 h at 37° C., 95% humidity and 5% CO2.
After 18 h incubation, plates were removed from the incubator and allowed to cool to room temperature for 30 min, before 10 μL per well SteadyGlo reagent detection reagent was added (as per manufacturer's instructions, 10 min before required 10 mL room temperature buffer was added to one vial of lyophilised substrate and inverted several times to fully dissolve). Plates were then incubated in the dark for 30 min before reading on an Envision plate reader.
Compounds were acoustically dispensed using a Labcyte Echo, using a 10 pt dose curve with a top concentration of 100 μM. Assay wells were backfilled with DMSO to a total of 60 nL to maintain 0.3% (v/v) DMSO through the assay.
The Stimulator signal was defined using 30 μM tert-butyl hydroquinone (tBHQ) and the Neutral signal by DMSO vehicle control. All calculations were performed using GeneData.
In IBIS Column Calculations, Assay Type was set to ‘Stimulator’, and the Activity Threshold was set to 50.
The mean values were calculated from anywhere from 1 to 20 individual measurements.

Keap1, sequence (Q14145 whole entry): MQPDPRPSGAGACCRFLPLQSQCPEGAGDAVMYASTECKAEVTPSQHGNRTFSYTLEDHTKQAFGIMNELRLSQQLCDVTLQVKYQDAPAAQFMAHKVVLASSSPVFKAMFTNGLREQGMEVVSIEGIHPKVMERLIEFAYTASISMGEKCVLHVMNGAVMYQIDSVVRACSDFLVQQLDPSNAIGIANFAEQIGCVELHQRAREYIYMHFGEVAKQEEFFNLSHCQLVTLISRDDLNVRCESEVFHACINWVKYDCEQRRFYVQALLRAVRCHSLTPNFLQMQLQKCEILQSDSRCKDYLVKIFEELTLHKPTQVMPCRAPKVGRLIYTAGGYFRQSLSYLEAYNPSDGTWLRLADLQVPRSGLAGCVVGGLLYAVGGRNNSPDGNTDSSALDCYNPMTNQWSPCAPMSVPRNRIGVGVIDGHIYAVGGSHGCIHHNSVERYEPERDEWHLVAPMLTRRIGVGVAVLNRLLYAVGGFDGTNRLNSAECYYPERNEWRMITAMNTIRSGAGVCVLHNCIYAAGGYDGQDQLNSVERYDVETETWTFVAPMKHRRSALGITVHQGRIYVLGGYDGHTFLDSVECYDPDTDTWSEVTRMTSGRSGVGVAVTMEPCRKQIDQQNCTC

With `COC1(c2ncccc2C(F)F)C=C(C#N)C(=O)C(C)(C)C1` (single isomer, unassigned) [Compound 5, 3-(3-(difluoromethyl)pyridin-2-yl)-3-methoxy-5,5-dimethyl-6-oxocyclohex-1-enecarbonitrile] as the compound, how does the EC50 read?
Its EC50 is 10 nM.

`[2H]C([2H])([2H])OC1(c2cccc(-c3cnn(C)c3)n2)C=C(C#N)C(=O)C(C)(C)C1` (single isomer, unassigned) [Compound 14, 5,5-Dimethyl-3-[6-(1-methylpyrazol-4-yl)-2-pyridyl]-6-oxo-3-(trideuterio-methoxy)cyclohexene-1-carbonitrile] was tested. Which EC50 did it give?
Its EC50 is 12 nM.

Which EC50 does the source give for `COC1(c2ncccc2C(F)(F)F)C=C(C#N)C(=O)C(C)(C)C1` (single isomer, unassigned) [Compound 15, 3-methoxy-5,5-dimethyl-6-oxo-3-(3-(trifluoromethyl)pyridin-2-yl)cyclohex-1-enecarbonitrile] here?
The EC50 was 24 nM.

For `COC1(c2ncccc2-c2cnn(C)c2)C=C(C#N)C(=O)C(C)(C)C1` (single isomer, unassigned) [Compound 23, 3-methoxy-5,5-dimethyl-3-(3-(1-methyl-1H-pyrazol-4-yl)pyridin-2-yl)-6-oxocyclohex-1-enecarbonitrile], which EC50 is on record?
The EC50 was 56 nM.

With `COC1(c2ncc(F)cc2C(F)(F)F)C=C(C#N)C(=O)C(C)(C)C1` (single isomer, unassigned) [Compound 26, 3-(5-fluoro-3-(trifluoromethyl)py-ridin-2-yl)-3-methoxy-5,5-dimethyl-6-oxocyclohex-1-enecarbonitrile] as the compound, how does the EC50 read?
Its EC50 is 24 nM.

How did the EC50 turn out when `COC1(c2ccc(F)cn2)C=C(C#N)C(=O)C(C)(C)C1` (single isomer, unassigned) [Compound 27, 3-(5-fluoropyridin-2-yl)-3-methoxy-5,5-dimethyl-6-oxocyclohex-1-enecarbonitrile] was run?
Its EC50 is 180 nM.

`COC1(c2ncc(F)cc2C)C=C(C#N)C(=O)C(C)(C)C1` (single isomer, unassigned) [Compound 31, 3-(5-fluoro-3-methylpyridin-2-yl)-3-methoxy-5,5-dimethyl-6-oxocyclohex-1-enecarbonitrile] was tested. Which EC50 did it give?
The EC50 was 19 nM.

`COC1(c2ccc(Cl)cn2)C=C(C#N)C(=O)C(C)(C)C1` (single isomer, unassigned) [Compound 32, 3-(5-chloropyridin-2-yl)-3-methoxy-5,5-dimethyl-6-oxocyclohex-1-enecarbonitrile] was tested. Which EC50 did it give?
Its EC50 is 55 nM.

`COC1(c2nc(C(F)(F)F)cs2)C=C(C#N)C(=O)C(C)(C)C1` (single isomer, unassigned) [Compound 33, 3-methoxy-5,5-dimethyl-6-oxo-3-(4-(tri-fluoromethyl)thia-zol-2-yl)cyclohex-1-enecarbonitrile] was tested. Which EC50 did it give?
The EC50 was 383 nM.

With `COC1(c2sccc2C)C=C(C#N)C(=O)C(C)(C)C1` (single isomer, unassigned) [Compound 34, 3-methoxy-5,5-dimethyl-3-(3-methylthiophen-2-yl)-6-oxocyclohex-1-enecarbonitrile] as the compound, how does the EC50 read?
Its EC50 is 12 nM.

With `CCOC1(c2ncccc2C(F)(F)F)C=C(C#N)C(=O)C(C)(C)C1` (single isomer, unassigned) [Compound 35, 3-ethoxy-5,5-dimethyl-6-oxo-3-(3-(trifluoromethyl)py-ridin-2-yl)cyclohex-1-enecarbonitrile] as the compound, how does the EC50 read?
The EC50 was 39 nM.

For `COC1(c2nc(C)cs2)C=C(C#N)C(=O)C(C)(C)C1` (single isomer, unassigned) [Compound 36, 3-methoxy-5,5-dimethyl-3-(4-methylthiazol-2-yl)-6-oxocyclohex-1-enecarbonitrile], which EC50 is on record?
Its EC50 is 96 nM.

With `CCOC1(c2ccc(F)cn2)C=C(C#N)C(=O)C(C)(C)C1` (single isomer, unassigned) [Compound 37, 3-ethoxy-3-(5-fluoropyridin-2-yl)-5,5-dimethyl-6-oxocyclohex-1-enecarbonitrile] as the compound, how does the EC50 read?
Its EC50 is 86 nM.

For `COC1(c2nccs2)C=C(C#N)C(=O)C(C)(C)C1` (single isomer, unassigned) [Compound 39, 3-methoxy-5,5-dimethyl-6-oxo-3-(thiazol-2-yl)cyclohex-1-enecarbonitrile], which EC50 is on record?
Its EC50 is 125 nM.

For `COC1(c2ncccc2OC(F)(F)F)C=C(C#N)C(=O)C(C)(C)C1` (single isomer, unassigned) [Compound 41, 3-methoxy-5,5-dimethyl-6-oxo-3-(3-(trifluoromethoxy)py-ridin-2-yl)cyclohex-1-enecarbonitrile], which EC50 is on record?
Its EC50 is 11 nM.

`COC1(c2scnc2C)C=C(C#N)C(=O)C(C)(C)C1` (single isomer, unassigned) [Compound 43, 3-methoxy-5,5-dimethyl-3-(4-methylthiazol-5-yl)-6-oxocyclohex-1-enecarbonitrile] was tested. Which EC50 did it give?
Its EC50 is 129 nM.

With `COC1(c2ncc(F)cc2F)C=C(C#N)C(=O)C(C)(C)C1` (single isomer, unassigned) [Compound 44, 3-(3,5-difluoropyridin-2-yl)-3-methoxy-5,5-dimethyl-6-oxocyclohex-1-enecarbonitrile] as the compound, how does the EC50 read?
The EC50 was 37 nM.

With `COC1(c2ncc(Cl)cc2C(F)F)C=C(C#N)C(=O)C(C)(C)C1` (single isomer, unassigned) [Compound 45, 3-(5-chloro-3-(difluoromethyl)py-ridin-2-yl)-3-methoxy-5,5-dimethyl-6-oxocyclohex-1-enecarbonitrile] as the compound, how does the EC50 read?
The EC50 was 28 nM.

For `COC1(c2ncc(F)cc2OC(F)F)C=C(C#N)C(=O)C(C)(C)C1` (single isomer, unassigned) [Compound 47, 3-(3-(difluoromethoxy)-5-fluoropyridin-2-yl)-3-methoxy-5,5-dimethyl-6-oxocyclohex-1-enecarbonitrile], which EC50 is on record?
Its EC50 is 8 nM.

`COC1(c2ncc(F)cc2Br)C=C(C#N)C(=O)C(C)(C)C1` (single isomer, unassigned) [Compound 48, 3-(3-bromo-5-fluoropyridin-2-yl)-3-methoxy-5,5-dimethyl-6-oxocyclohex-1-enecarbonitrile] was tested. Which EC50 did it give?
Its EC50 is 6 nM.

How did the EC50 turn out when `COC1(c2cccc(-c3cnn(C)c3)n2)C=C(C#N)C(=O)C2(CC2)C1` (single isomer, unassigned) [Compound 49, 7-methoxy-7-(6-(1-methyl-1H-pyrazol-4-yl)pyridin-2-yl)-4-oxospiro[2.5]oct-5-ene-5-carbonitrile] was run?
The EC50 was 138 nM.

For `COC1(c2cccc(-c3cnc(C)nc3)n2)C=C(C#N)C(=O)C2(CC2)C1` (single isomer, unassigned) [Compound 50, 7-methoxy-7-(6-(2-methylpyrimidin-5-yl)pyridin-2-yl)-4-oxospiro[2.5]oct-5-ene-5-carbonitrile], which EC50 is on record?
The EC50 was 30 nM.

`COC1(c2cccc(-c3cncnc3)n2)C=C(C#N)C(=O)C2(CC2)C1` (single isomer, unassigned) [Compound 51, 7-methoxy-4-oxo-7-(6-(pyrimidin-5-yl)pyridin-2-yl)spiro[2.5]oct-5-ene-5-carbonitrile] was tested. Which EC50 did it give?
The EC50 was 48 nM.

How did the EC50 turn out when `COC1(c2cccc(-c3c(C)noc3C)n2)C=C(C#N)C(=O)C2(CC2)C1` (single isomer, unassigned) [Compound 52, 7-(6-(3,5-dimethylisoxazol-4-yl)pyridin-2-yl)-7-methoxy-4-oxospiro[2.5]oct-5-ene-5-carbonitrile] was run?
Its EC50 is 74 nM.

For `COC1(c2cccc(-c3ccnn3C)n2)C=C(C#N)C(=O)C2(CC2)C1` (single isomer, unassigned) [Compound 53, 7-methoxy-7-(6-(1-methyl-1H-pyrazol-5-yl)pyridin-2-yl)-4-oxospiro[2.5]oct-5-ene-5-carbonitrile], which EC50 is on record?
The EC50 was 133 nM.

How did the EC50 turn out when `COC1(c2cncc(C)n2)C=C(C#N)C(=O)C2(CC2)C1` (single isomer, unassigned) [Compound 54, 7-methoxy-7-(6-methylpyrazin-2-yl)-4-oxospiro[2.5]oct-5-ene-5-carbonitrile] was run?
The EC50 was 363 nM.

How did the EC50 turn out when `COC1(c2ccccn2)C=C(C#N)C(=O)C2(CC2)C1` (single isomer, unassigned) [Compound 56, 7-methoxy-4-oxo-7-(pyridin-2-yl)spiro[2.5]oct-5-ene-5-carbonitrile] was run?
The EC50 was 179 nM.

`COC1(c2ncccc2C(F)(F)F)C=C(C#N)C(=O)C2(CC2)C1` (single isomer, unassigned) [Compound 57, 7-methoxy-4-oxo-7-[3-(trifluoromethyl)pyridin-2-yl]spiro[2.5]oct-5-ene-5-carbonitrile] was tested. Which EC50 did it give?
The EC50 was 47 nM.

How did the EC50 turn out when `COC1(c2nc(C)cs2)C=C(C#N)C(=O)C2(CC2)C1` (single isomer, unassigned) [Compound 59, 7-methoxy-4-7-(4-methyl-1,3-thiazol-2-yl)-4-oxospiro[2.5]oct-5-ene-5-carbonitrile] was run?
The EC50 was 261 nM.

Which EC50 does the source give for `COC1(c2ncc(F)cc2F)C=C(C#N)C(=O)C2(CC2)C1` (single isomer, unassigned) [Compound 60, 7-(3,5-difluoropyridin-2-yl)-7-methoxy-4-oxospiro[2.5]oct-5-ene-5-carbonitrile] here?
Its EC50 is 153 nM.
